Experimental findings from ChEMBL document CHEMBL1126437, “Synthesis and cytotoxicity of enantiomeric pairs of duocarmycin a and its 2-epimer” (Bioorg Med Chem Lett, 1992) are described below.

Converted amounts (≈) assume the structure as drawn.

The assay has as its system P388. As to the kind of experiment: In vitro evaluation for cytotoxicity against P388 murine leukemia. In kind it is functional, cell-based, Mus musculus.

The IC50 is the concentration at which inhibition is half-maximal. Regarding `COC(=O)[C@]1(C)N=C2C(=O)C=C3N(C(=O)c4cc5cc(OC)c(OC)c(OC)c5[nH]4)C[C@H]4C[C@@]34C2=C1O`, the IC50 (p388) is 0.002 ng/mL (≈ 0.00394 nM).

Consider `COC(=O)[C@@]1(C)N=C2C(=O)C=C3N(C(=O)c4cc5cc(OC)c(OC)c(OC)c5[nH]4)C[C@@H]4C[C@]34C2=C1O`, for which the IC50 (Mus musculus, P388, read-out: IC50) was found to be 0.3 ng/mL (≈ 0.591 nM).
